Test results: ChEMBL document CHEMBL2406981, “Novel pyrazoline amidoxime and their 1,2,4-oxadiazole analogues: synthesis and pharmacological screening” (Bioorg Med Chem Lett, 2013)
≈ marks a conversion by molar mass, not a printed value.

Experiments:
Type in all cases: functional
[1] = Antiinflammatory activity against heat-induced albumin denaturation at […] preincubated for 15 mins before heat induction by UV-vis spectrophotometer analysis
Aspergillus flavus [2] = experiment: Antimicrobial activity against Aspergillus flavus MTCC 873
Aspergillus niger [3] = experiment: Antimicrobial activity against Aspergillus niger MTCC 281
Shigella flexneri [4] = experiment: Antimicrobial activity against Shigella flexneri MTCC 1457
Escherichia coli [5] = experiment: Antimicrobial activity against Escherichia coli MTCC 724
Klebsiella pneumoniae [6] = experiment: Antimicrobial activity against Klebsiella pneumoniae MTCC 3384
Staphylococcus aureus [7] = experiment: Antimicrobial activity against Staphylococcus aureus MTCC 96
Bacillus cereus [8] = experiment: Antimicrobial activity against Bacillus cereus MTCC 8372
Aspergillus niger [9] = experiment: Antimicrobial activity against Aspergillus niger MTCC 281 at 50 ug/ml after 24 hrs by agar disc diffusion method; conditions: MTCC 281, 24 h, read-out: DIZ
Aspergillus niger [10] = experiment: Antimicrobial activity against Aspergillus niger MTCC 281 at 100 ug/ml after 24 hrs by agar disc diffusion method; conditions: MTCC 281, 24 h, read-out: DIZ
Aspergillus flavus [11] = experiment: Antimicrobial activity against Aspergillus flavus MTCC 873 at 100 ug/ml after 24 hrs by agar disc diffusion method; conditions: MTCC 873, 24 h, read-out: DIZ
Aspergillus flavus [12] = experiment: Antimicrobial activity against Aspergillus flavus MTCC 873 at 50 ug/ml after 24 hrs by agar disc diffusion method; conditions: MTCC 873, 24 h, read-out: DIZ
Shigella flexneri [13] = experiment: Antimicrobial activity against Shigella flexneri MTCC 1457 at 100 ug/ml after 24 hrs by agar disc diffusion method; conditions: MTCC 1457, 24 h, read-out: DIZ
Shigella flexneri [14] = experiment: Antimicrobial activity against Shigella flexneri MTCC 1457 at 50 ug/ml after 24 hrs by agar disc diffusion method; conditions: MTCC 1457, 24 h, read-out: DIZ
Klebsiella pneumoniae [15] = experiment: Antimicrobial activity against Klebsiella pneumoniae MTCC 3384 at 100 ug/ml after 24 hrs by agar disc diffusion method; conditions: MTCC 3384, 24 h, read-out: DIZ
Klebsiella pneumoniae [16] = experiment: Antimicrobial activity against Klebsiella pneumoniae MTCC 3384 at 50 ug/ml after 24 hrs by agar disc diffusion method; conditions: MTCC 3384, 24 h, read-out: DIZ
Escherichia coli [17] = experiment: Antimicrobial activity against Escherichia coli MTCC 724 at 100 ug/ml after 24 hrs by agar disc diffusion method; conditions: MTCC 724, 24 h, read-out: DIZ
Escherichia coli [18] = experiment: Antimicrobial activity against Escherichia coli MTCC 724 at 50 ug/ml after 24 hrs by agar disc diffusion method; conditions: MTCC 724, 24 h, read-out: DIZ
Staphylococcus aureus [19] = experiment: Antimicrobial activity against Staphylococcus aureus MTCC 96 at 100 ug/ml after 24 hrs by agar disc diffusion method; conditions: MTCC 96, 24 h, read-out: DIZ
Staphylococcus aureus [20] = experiment: Antimicrobial activity against Staphylococcus aureus MTCC 96 at 50 ug/ml after 24 hrs by agar disc diffusion method; conditions: MTCC 96, 24 h, read-out: DIZ
Bacillus cereus [21] = experiment: Antimicrobial activity against Bacillus cereus MTCC 8372 at 100 ug/ml after 24 hrs by agar disc diffusion method; conditions: MTCC 8372, 24 h, read-out: DIZ
Bacillus cereus [22] = experiment: Antimicrobial activity against Bacillus cereus MTCC 8372 at 50 ug/ml after 24 hrs by agar disc diffusion method; conditions: MTCC 8372, 24 h, read-out: DIZ
[23] = Antioxidant activity against ferric chloride-induced lipid peroxidation using egg lecithin at 50 ug/ml after 1 hr
[24] = Antioxidant activity against ferric chloride-induced lipid peroxidation using egg lecithin at 100 ug/ml after 1 hr
[25] = Antioxidant activity against ferric chloride-induced lipid peroxidation using egg lecithin at 10 ug/ml after 1 hr
[26] = Antioxidant activity assessed as reducing power of ferric ion at 50 ug/ml after 20 mins; set-up: scale not given: the % may be the effect or the level left
[27] = Antioxidant activity assessed as reducing power of ferric ion at 100 ug/ml after 20 mins; set-up: scale not given: the % may be the effect or the level left
[28] = Antioxidant activity assessed as reducing power of ferric ion at 10 ug/ml after 20 mins; set-up: scale not given: the % may be the effect or the level left
[29] = test system: Radical scavenging activity; experiment: Antioxidant activity assessed as DPPH free radical scavenging activity at 50 ug/ml after 20 mins
[30] = test system: Radical scavenging activity; experiment: Antioxidant activity assessed as DPPH free radical scavenging activity at 100 ug/ml after 20 mins
[31] = test system: Radical scavenging activity; experiment: Antioxidant activity assessed as DPPH free radical scavenging activity at 10 ug/ml after 20 mins

SMILES	MIC (Aspergillus flavus [2]) [µg/mL]	MIC (Aspergillus niger [3]) [µg/mL]	MIC (Shigella flexneri [4]) [µg/mL]	MIC (Escherichia coli [5]) [µg/mL]	MIC (Klebsiella pneumoniae [6]) [µg/mL]	MIC (Staphylococcus aureus [7]) [µg/mL]	MIC (Bacillus cereus [8]) [µg/mL]	inhibition [1] [%]	zone of inhibition at 50 µg/mL (Aspergillus niger [9]) [mm]	zone of inhibition at 100 µg/mL (Aspergillus niger [10]) [mm]	zone of inhibition at 100 µg/mL (Aspergillus flavus [11]) [mm]	zone of inhibition at 50 µg/mL (Aspergillus flavus [12]) [mm]	zone of inhibition at 100 µg/mL (Shigella flexneri [13]) [mm]	zone of inhibition at 50 µg/mL (Shigella flexneri [14]) [mm]	zone of inhibition at 100 µg/mL (Klebsiella pneumoniae [15]) [mm]	zone of inhibition at 50 µg/mL (Klebsiella pneumoniae [16]) [mm]	zone of inhibition at 100 µg/mL (Escherichia coli [17]) [mm]	zone of inhibition at 50 µg/mL (Escherichia coli [18]) [mm]	zone of inhibition at 100 µg/mL (Staphylococcus aureus [19]) [mm]	zone of inhibition at 50 µg/mL (Staphylococcus aureus [20]) [mm]	further results
Clc1ccc(-c2nc(C3CC(c4ccccc4)=NN3c3ccccc3)no2)cc1 (configuration not stated)	10 (≈ 24.9 µM)	10 (≈ 24.9 µM)	25 (≈ 62.4 µM)	30 (≈ 74.8 µM)	30 (≈ 74.8 µM)	20 (≈ 49.9 µM)	25 (≈ 62.4 µM)	53.7	11	20	14	12	10	6	8	5	18	4	10	8	zone of inhibition at 100 µg/mL (Bacillus cereus [21]): 10 mm; zone of inhibition at 50 µg/mL (Bacillus cereus [22]): 6 mm; inhibition [23]: 48%; inhibition [24]: 73%; inhibition [25]: 34%; Activity [26]: 22%; Activity [27]: 65%; Activity [28]: 12%; Activity [29]: 42%; Activity [30]: 67%; Activity [31]: 23%
COc1ccc(C2=NN(c3ccccc3)C(c3noc(-c4ccccc4OC)n3)C2)cc1 (configuration not stated)	15 (≈ 35.2 µM)	10 (≈ 23.4 µM)	25 (≈ 58.6 µM)	25 (≈ 58.6 µM)	25 (≈ 58.6 µM)	35 (≈ 82.1 µM)	35 (≈ 82.1 µM)	27.1	12	22	12	10	10	6	8	7	8	6	8	4	zone of inhibition at 100 µg/mL (Bacillus cereus [21]): 8 mm; zone of inhibition at 50 µg/mL (Bacillus cereus [22]): 4 mm; inhibition [23]: 33%; inhibition [24]: 57%; inhibition [25]: 21%; Activity [26]: 24%; Activity [27]: 65%; Activity [28]: 11%; Activity [29]: 41%; Activity [30]: 53%; Activity [31]: 20%
COc1ccc(C2=NN(c3ccccc3)C(c3noc(-c4ccccc4)n3)C2)cc1 (configuration not stated)	25 (≈ 63.1 µM)	10 (≈ 25.2 µM)	25 (≈ 63.1 µM)	25 (≈ 63.1 µM)	25 (≈ 63.1 µM)	55 (≈ 139 µM)	45 (≈ 114 µM)	23.3	10	18	10	7	8	7	8	6	8	6	12	2	zone of inhibition at 100 µg/mL (Bacillus cereus [21]): 12 mm; zone of inhibition at 50 µg/mL (Bacillus cereus [22]): 3 mm; inhibition [23]: 40%; inhibition [24]: 62%; inhibition [25]: 26%; Activity [26]: 20%; Activity [27]: 64%; Activity [28]: 11%; Activity [29]: 36%; Activity [30]: 51%; Activity [31]: 19%

The remaining molecules from weak to strong by MIC (Aspergillus flavus [2]), led by results:

MIC (Aspergillus flavus [2]) [µg/mL]	MIC (Aspergillus niger [3]) [µg/mL]	MIC (Shigella flexneri [4]) [µg/mL]	MIC (Escherichia coli [5]) [µg/mL]	MIC (Klebsiella pneumoniae [6]) [µg/mL]	MIC (Staphylococcus aureus [7]) [µg/mL]	MIC (Bacillus cereus [8]) [µg/mL]	SMILES	inhibition [1] [%]	zone of inhibition at 50 µg/mL (Aspergillus niger [9]) [mm]	zone of inhibition at 100 µg/mL (Aspergillus niger [10]) [mm]	zone of inhibition at 100 µg/mL (Aspergillus flavus [11]) [mm]	zone of inhibition at 50 µg/mL (Aspergillus flavus [12]) [mm]	zone of inhibition at 100 µg/mL (Shigella flexneri [13]) [mm]	zone of inhibition at 50 µg/mL (Shigella flexneri [14]) [mm]	zone of inhibition at 100 µg/mL (Klebsiella pneumoniae [15]) [mm]	zone of inhibition at 50 µg/mL (Klebsiella pneumoniae [16]) [mm]	zone of inhibition at 100 µg/mL (Escherichia coli [17]) [mm]	zone of inhibition at 50 µg/mL (Escherichia coli [18]) [mm]	zone of inhibition at 100 µg/mL (Staphylococcus aureus [19]) [mm]	zone of inhibition at 50 µg/mL (Staphylococcus aureus [20]) [mm]	further results
15 (≈ 37.8 µM)	20 (≈ 50.4 µM)	50 (≈ 126 µM)	35 (≈ 88.3 µM)	55 (≈ 139 µM)	55 (≈ 139 µM)	55 (≈ 139 µM)	COc1ccccc1-c1nc(C2CC(c3ccccc3)=NN2c2ccccc2)no1 (configuration not stated)	23.9	8	14	12	10	8	3	6	3	6	4	6	2	zone of inhibition at 100 µg/mL (Bacillus cereus [21]): 8 mm; zone of inhibition at 50 µg/mL (Bacillus cereus [22]): 2 mm; inhibition [23]: 31%; inhibition [24]: 60%; inhibition [25]: 11%; Activity [26]: 22%; Activity [27]: 54%; Activity [28]: 10%; Activity [29]: 34%; Activity [30]: 44%; Activity [31]: 14%
10 (≈ 23 µM)	5 (≈ 11.5 µM)	20 (≈ 45.9 µM)	20 (≈ 45.9 µM)	25 (≈ 57.4 µM)	20 (≈ 45.9 µM)	25 (≈ 57.4 µM)	Clc1ccc(C2=NN(c3ccccc3)C(c3noc(-c4ccc(Cl)cc4)n3)C2)cc1 (configuration not stated)	78.4	20	26	25	15	12	8	10	6	10	8	12	6	zone of inhibition at 100 µg/mL (Bacillus cereus [21]): 12 mm; zone of inhibition at 50 µg/mL (Bacillus cereus [22]): 6 mm; inhibition [23]: 58%; inhibition [24]: 83%; inhibition [25]: 34%; Activity [26]: 32%; Activity [27]: 86%; Activity [28]: 16%; Activity [29]: 53%; Activity [30]: 82%; Activity [31]: 29%
10 (≈ 21.7 µM)	10 (≈ 21.7 µM)	15 (≈ 32.5 µM)	20 (≈ 43.4 µM)	15 (≈ 32.5 µM)	25 (≈ 54.2 µM)	20 (≈ 43.4 µM)	COc1ccc(-c2nc(C3CC(c4ccc(Cl)cc4)=NN3c3ccccc3)no2)cc1OC (configuration not stated)	53.5	14	27	21	14	16	10	11	9	12	8	12	6	zone of inhibition at 100 µg/mL (Bacillus cereus [21]): 14 mm; zone of inhibition at 50 µg/mL (Bacillus cereus [22]): 8 mm; inhibition [23]: 52%; inhibition [24]: 73%; inhibition [25]: 30%; Activity [26]: 29%; Activity [27]: 75%; Activity [28]: 14%; Activity [29]: 59%; Activity [30]: 86%; Activity [31]: 30%
10 (≈ 21.2 µM)	5 (≈ 10.6 µM)	10 (≈ 21.2 µM)	15 (≈ 31.7 µM)	10 (≈ 21.2 µM)	15 (≈ 31.7 µM)	10 (≈ 21.2 µM)	COc1cc(-c2nc(C3CC(c4ccc(O)cc4)=NN3c3ccccc3)no2)cc(OC)c1OC (configuration not stated)	59.3	18	30	26	14	22	14	18	12	16	10	18	10	zone of inhibition at 100 µg/mL (Bacillus cereus [21]): 18 mm; zone of inhibition at 50 µg/mL (Bacillus cereus [22]): 12 mm; inhibition [23]: 62%; inhibition [24]: 87%; inhibition [25]: 42%; Activity [26]: 26%; Activity [27]: 76%; Activity [28]: 16%; Activity [29]: 63%; Activity [30]: 91%; Activity [31]: 34%
